This note sets out measurements from ChEMBL document CHEMBL1134788, “Oxindole derivatives as orally active potent growth hormone secretagogues” (J Med Chem, 2001).

Broadly, the EC50 is the concentration that produces a half-maximal response.

Each structure is given as a SMILES string.

The species entered for this assay is Rattus norvegicus. As to the kind of experiment: In vitro growth hormone releasing activity was measured in rat pituitary cells. Type of assay: functional, cell-based. As to conditions: Pituitary gland cell.
Regarding `CCN(CC)CCN1C(=O)C(O)(c2ccc3ccccc3c2)c2c1cc(C#CCO)cc2C(F)(F)F` (centres undefined), the EC50 is 310 nM. As to `CCN(CC)CCN1C(=O)C(O)(c2ccc3ccccc3c2)c2c(C#CCO)cc(Cl)cc21` (centres undefined), the EC50 was over 1000 nM.

In the case of `CCN(CC)CCN1C(=O)C(O)(c2ccc3ccccc3c2)c2cc(Br)ccc21` (centres undefined), the EC50 was over 1000 nM. `CCN(CC)CCN1C(=O)C(O)(c2ccc3ccccc3c2)c2c(Br)cccc21` (centres undefined) yielded an EC50 of 77 nM. In the case of `CCN(CC)CCN1C(=O)C(O)(c2ccc3ccccc3c2)c2cccc(Br)c21` (centres undefined) it was over 1000 nM; in that of `CCN(CC)CCN1C(=O)C(O)(c2ccc3ccccc3c2)c2ccc(Br)cc21` (centres undefined), 380 nM.

`CCN(CC)CCN1C(=O)C(O)(c2ccc3ccccc3c2)c2ccccc21` (centres undefined) showed an EC50 of over 1000 nM. For the compound `CCN(CC)CCN1C(=O)C(O)(c2ccc3ccccc3c2)c2c(Cl)cc(C#CCO)cc21` (centres undefined), the EC50 was determined as 310 nM. That is a sub-micromolar value.

In turn, `CCN(CC)CCN1C(=O)[C@](O)(c2cc3ccccc3cc2Cl)c2c1cc(C(N)=O)cc2C(F)(F)F` showed an EC50 of 210 nM.

`CCN(CC)CCN1C(=O)C(O)(c2ccc3ccccc3c2)c2c1cc(C#CCCC(=O)N1CCOCC1)cc2C(F)(F)F` (centres undefined) displayed an EC50 of 30 nM. In the case of `CCN(CC)CCN1C(=O)C(O)(c2ccc3ccccc3c2)c2c1cc(C(N)=O)cc2C(F)(F)F` (centres undefined) it was 18 nM.

For `CCN(CC)CCN1C(=O)C(O)(c2ccc3ccccc3c2)c2c1cc(C#CCCC(N)=O)cc2C(F)(F)F` (centres undefined), the concentration giving a half-maximal response (EC50) came out at 30 nM. In the case of `CCN(CC)CCN1C(=O)[C@@](O)(c2cc3ccccc3cc2Cl)c2c1cc(C(N)=O)cc2C(F)(F)F` it was 3 nM; in that of `CCN(CC)CCN1C(=O)C(O)(c2cc3ccccc3cc2Cl)c2c1cc(C(N)=O)cc2C(F)(F)F` (centres undefined), 3.5 nM.
